Results: patent US9808477B2 (Macau University of Science and Technology, priority 2015, dated 2017)
pEC50, pIC50: −log10 of the molar value. Where two headings read alike, the source gives them in different places.

Columns and labels:
[1] = system: MDR1 mRNA in A2780/T cells; assay: RT-PCR analysis of MDR1 mRNA; type: cell-based, human; details: nobiletin at concentrations used in reversal assays, 48 h
Protocol: RT-PCR was performed to evaluate MDR1 mRNA expression. mRNA from cell lysates were purified by binding to poly(dT) magnetic beads (Life technologies) and reverse transcribed by using SuperScript II (Life technologies). Standard quantitative RT-PCR was performed in duplicates at least two to three times by using SYBR Green (Molecular Probes) protocols on the ViiA™ 7 Real-Time PCR System (Life technologies). The primer sequences: 5′-[…]-3′ (SEQ ID NO:1) and 3′-[…]-5′ (SEQ ID NO:2) for MDR1, and 5′-[…]-3′ (SEQ ID NO:3) and 3′-[…]-[…]-5′ (SEQ ID NO:4) for control gene eukaryotic translation initiation factor (TIF). RT-PCR data were normalized by measuring average cycle threshold (Ct) ratios between candidate genes and control gene TIF.

A2780/T cells [2] = assay: Combination index, Chou-Talalay method (CalcuSyn); type: cell-based, human
A2780/T cells [3] = assay: Cell cycle analysis (PI, flow cytometry); type: cell-based, human
Protocol: A2780/T cells were harvested 24 hours, 48 hours, or 72 hours after treatment and washed twice with ice-cold PBS. The cells were fixed and permeabilized with 70% ice-cold ethanol overnight at 4° C. or 2 h at −20° C. After one additional wash in PBS, cells were stained with a staining solution containing propidium iodide (PI) ([…]) and RNase A (250 μg/ml) for 30 min at room temperature. They were then pelleted, washed and suspended in PBS to a final concentration of 1×10^6/ml and analyzed by flow cytometry BD FACS Aria (BD Biosciences, San Jose, Calif.).

in vitro [4] = type: cell-based; details: human
Protocol: (§1) Sulphorhodamine B (SRB) assays were used for cell density determination, based on sensitive measure of total cellular protein, which perform similarly compared with other proliferation assays such as MTT assay. Briefly, cells were seeded into flat bottomed 96-well plates at an initial density of 7.5×10^3 per well before treatment. […] After removing the medium, cells were fixed in 10% trichloroacetic acid for 1 h at 4° C. and then washed with water five times. 0.4% SRB dissolved in 1% v/v acetic acid was added and incubated […] for staining. The cells were quickly washed with 1% acetic acid and left to dry overnight. The protein bound SRB was solubilized by adding 200 μl 10 mM Tris buffer per well and was measured at wavelengths 490 nm using a plate reader (Spectra MAX 250; Molecular Devices, Sunnyvale, Calif.). The optical density of SRB in each well is directly proportional to the cell number.

[5] = rats, single administration 50 mg/kg by gavage; cited from earlier work
in vitro [6] = type: cell-based; details: human; remark: listed apart in the source
Protocol: as §1

[7] = target: T1, recombinant human ABCB1 membranes (P-gp ATPase) (Homo sapiens, UniProt P08183); assay: ABCB1 ATPase activity assay (PgpGlo); type: biochemical
T1 construct: purchased Promega
T1 sequence (P08183 whole entry): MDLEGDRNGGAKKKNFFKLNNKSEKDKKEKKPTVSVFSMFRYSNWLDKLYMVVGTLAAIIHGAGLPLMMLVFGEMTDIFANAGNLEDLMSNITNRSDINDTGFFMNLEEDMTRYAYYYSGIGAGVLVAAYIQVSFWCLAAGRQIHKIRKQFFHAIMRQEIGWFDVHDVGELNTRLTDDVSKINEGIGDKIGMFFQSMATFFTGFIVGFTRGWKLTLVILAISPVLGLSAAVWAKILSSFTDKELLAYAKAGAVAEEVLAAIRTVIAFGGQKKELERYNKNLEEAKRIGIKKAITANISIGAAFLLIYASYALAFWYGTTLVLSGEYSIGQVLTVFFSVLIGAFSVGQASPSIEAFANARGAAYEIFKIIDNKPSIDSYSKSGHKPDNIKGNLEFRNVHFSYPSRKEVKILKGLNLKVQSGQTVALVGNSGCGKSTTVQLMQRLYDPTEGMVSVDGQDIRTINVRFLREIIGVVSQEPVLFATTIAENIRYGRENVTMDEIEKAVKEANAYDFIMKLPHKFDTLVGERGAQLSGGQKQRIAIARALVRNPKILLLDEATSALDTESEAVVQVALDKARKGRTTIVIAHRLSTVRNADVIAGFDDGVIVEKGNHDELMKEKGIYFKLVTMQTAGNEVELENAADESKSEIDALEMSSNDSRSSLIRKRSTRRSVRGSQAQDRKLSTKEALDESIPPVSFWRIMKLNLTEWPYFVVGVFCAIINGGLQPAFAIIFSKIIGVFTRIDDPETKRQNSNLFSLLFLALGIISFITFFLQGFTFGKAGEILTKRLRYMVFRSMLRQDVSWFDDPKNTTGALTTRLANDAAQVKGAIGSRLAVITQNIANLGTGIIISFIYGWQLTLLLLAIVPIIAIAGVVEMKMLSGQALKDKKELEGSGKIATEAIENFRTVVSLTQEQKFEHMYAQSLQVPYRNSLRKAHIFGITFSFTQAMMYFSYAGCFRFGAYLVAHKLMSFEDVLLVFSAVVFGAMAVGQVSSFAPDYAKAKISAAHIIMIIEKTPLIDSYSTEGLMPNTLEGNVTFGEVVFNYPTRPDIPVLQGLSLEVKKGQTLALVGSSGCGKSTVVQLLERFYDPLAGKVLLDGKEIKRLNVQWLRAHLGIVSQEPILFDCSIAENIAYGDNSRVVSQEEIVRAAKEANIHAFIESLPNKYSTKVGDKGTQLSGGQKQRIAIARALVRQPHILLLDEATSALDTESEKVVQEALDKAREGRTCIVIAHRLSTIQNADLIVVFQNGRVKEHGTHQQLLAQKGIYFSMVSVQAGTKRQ
Protocol: Sodium orthovanadate (Na3VO4) was used as an ABCB1 ATPase inhibitor. […] Luminescence was initiated by ATP detection buffer. The plate (white opaque 96-well, corning, USA) was further incubated at room temperature for […] to develop luminescent signal, and was read with luminometer (infinite M200 PRO, TECAN, Switzerland).

[8] = system: A2780/T cells (PTX-resistant, ABCB1-overexpressing ovarian cancer cells); assay: cells; type: cell-based, human; details: Homo sapiens, A2780, 48 h, A2780/T, 48 h, SRB, drug alone (no nobiletin); read-out: IC50 ± SD
Protocol: as §1

Caco-2 cells = details: nobiletin 20 μM; cited from earlier work
A2780/T cells [9] = assay: Intracellular accumulation of doxorubicin and Flutax-2; type: cell-based, human; details: 8 h, 4.5 μM nobiletin or 20 μM QND
[10] = system: P-gp, p53, AKT/ERK, Nrf2 in A2780/T cells; assay: Western blot analysis; type: cell-based, human
Protocol: The total cellular samples were harvested and rinsed twice with ice-cold PBS buffer. Cell extracts were lysed in RIPA buffer (50 mM Tris (pH 7.4), 150 mM NaCl, 1% Triton X-100, 1% sodium deoxycholate, 0.1% SDS, sodium orthovanadate, sodium fluoride and EDTA) containing protease inhibitor cocktails (Roche Life Science, USA). Protein concentration was determined using the BCA protein assay kit. Equal amounts of cell lysates were resolved by SDS-PAGE and subsequently electrophoretically transferred onto PVDF membranes (Millipore, Darmstadt, Germany). After blocking in tris-buffered saline containing 0.1% of Tween20 (TBST) with 5% (w/v) skim milk (Nestle Carnation, New Zealand) for 2 h at room temperature, the membranes were incubated with primary and secondary antibodies and subsequently visualized with an enhanced chemiluminescence detection kit (Thermo Scientific™ SuperSignal™ West Pico Chemiluminescent Substrate, USA). β-Actin was used as the loading control for the experimental data analysis.

[11] = system: prostate cancer cell lines; details: several prostate cancer cell lines; read-out: IC50, growth inhibition; cited from earlier work
[12] = healthy subjects, single dose of Sytrinol (1053 mg total polymethoxylated flavones); cited from earlier work
[13] = nobiletin 9 μM in combination with 0.94 μM PTX

**Q.** With `COc1ccc(-c2cc(=O)c3c(OC)c(OC)c(OC)c(OC)c3o2)cc1OC` [nobiletin] as the compound, how does the “expression of MDR1 mRNA” value [1] read?
**A.** did not significantly alter

**Q.** And the pEC50 (A2780/T cells [2]; Homo sapiens, A2780, read-out: Dose N at Fa = 0.5 (ED50), CalcuSyn simulation, A2780/T, nobiletin dose, alone or in the combination)?
**A.** 4.44

**Q.** And the “decrease of the ED50 dose of PTX” value (A2780/T cells [2]; combination with 0.286 μM nobiletin, A2780/T)?
**A.** 200 fold

**Q.** And the “effect on the cell cycle” value (A2780/T cells [3]; nobiletin 9 μM alone)?
**A.** no effect

**Q.** What about the G1 phase cells (A2780/T cells [3]; [13]) of the same compound?
**A.** 9.6%

**Q.** What about the G2 phase cells (A2780/T cells [3]; [13]) of the same compound?
**A.** 75.77%

**Q.** And the viability at 9 µM (in vitro [4])?
**A.** > 90%

**Q.** And the peak plasma level [5]?
**A.** ~22.5 µM

**Q.** What about the viability at 9 µM (in vitro [6]) of the same compound?
**A.** > 90%

**Q.** And the pEC50 [7]?
**A.** 5.23

**Q.** What about the pIC50 [7] of the same compound?
**A.** 5.14

**Q.** What about the “maximal stimulation of ATPase activity relative to basal activity” value ([7]; human, 40 min) of the same compound?
**A.** 3 fold

**Q.** What about the pIC50 [8] of the same compound?
**A.** 4.50

**Q.** And the “increase of uptake of [3H] vinblastine” value (Caco-2 cells)?
**A.** 3 fold

**Q.** And the “intracellular accumulation of DOX” value (A2780/T cells [9]; 5 μM DOX)?
**A.** higher than that in untreated A2780/T

**Q.** And the “intracellular accumulation of Flutax-2” value (A2780/T cells [9]; Flutax-2 1 μM)?
**A.** higher than that in untreated A2780/T

**Q.** And the “phosphorylated AKT/ERK level” value ([10]; 50 μM nobiletin)?
**A.** significant decrease

**Q.** What about the “phosphorylated AKT and ERK” value ([10]; PTX and nobiletin, 48 h) of the same compound?
**A.** significant inhibitory effect

**Q.** What about the p53 level ([10]; PTX in combination with nobiletin) of the same compound?
**A.** accumulation of p53

**Q.** What about the “expression of total and phosphorylated AKT and ERK” value ([10]; nobiletin alone at reversal concentrations) of the same compound?
**A.** no effect

**Q.** And the “protein level of ABCB1” value ([10]; nobiletin at concentrations used in reversal assays, 48 h)?
**A.** did not significantly alter

**Q.** And the “protein level of Nrf2” value ([10]; nobiletin in combination with 0.94 μM PTX, dose-dependent)?
**A.** reduced

**Q.** And the pIC50 [11]?
**A.** ~4.00

**Q.** What about the peak plasma level [12] of the same compound?
**A.** ~2.5 µM
